These results are taken from patent publication US10538567B2, “Compounds as peptidic trigonal GLP1/glucagon/GIP receptor agonists” (priority 2016, dated 2020).

Numbered stars: 1 amine (or outer) side, 2 acyl side, 3 side chain; on linkers, the order of the positions; unused ones are H or OH. Square brackets hold non-standard residues; d marks the D form. Side chains are listed from the residue outwards. Peptide text beside a SMILES is read from it. * marks the point of attachment. γGlu = O=C(O)[C@H](CCC(=O)[*:2])N[*:1]; Palmitoyl = CCCCCCCCCCCCCCCC(=O)*; Aib = CC(C)(N)C(=O)O

One test deals with male ApoE KO mice. Nature of the test: Anti-atherosclerotic activity in ApoE KO mice, 16 weeks minipump infusion. The format is in vivo. The settings on record: 150 μg/kg/day. The text has this:
The apolipoprotein E (ApoE) knockout (KO) mouse model is widely used to investigate atherosclerosis. These mice spontaneously develop atherosclerotic lesions that are morphologically similar to those observed in humans (Meir & Leitersdorf 2004, Arterioscler Thromb Vasc Biol 24: 1006-1014, Rosenfeld et al. 2000, Arterioscler Thromb Vasc Biol 20: 2587-2592).
Male ApoE KO mice (B.129P2-apoetm1Unc/J) were randomly allocated to control or treatment groups (N=15 per group); wild-type mice (C57BL6/J) received vehicle treatment and acted as a second, healthy control.
ApoE KO and wild-type mice received constant 16 weeks infusion using subcutaneous osmotic minipumps (ALZET™) filled with either vehicle (sterile acetate buffer, pH 4.5), Peptides SEQ ID NO. 6 & SEQ ID NO. 11 (150 μg/kg/day) or with Liraglutide (600 μg/kg/day). Body weight and food intake was monitored throughout the study on a weekly basis.
Blood samples for blood lipid analysis were drawn before treatment and at weeks 7 and 16 to analyze total cholesterol, low density lipoprotein (LDL) cholesterol and high density lipoprotein (HDL) cholesterol (not shown).
The aorta was dissected and aortic atherosclerotic plaque formation was measured as absolute and relative plaque area (% oilred stained area of total aortic surface area) using quantitative and automated image analysis.

In the next test the target is T1, human GIP receptor (Homo sapiens, UniProt P48546).
T1 construct: expressed in transfected cells; host or cells: HEK-293
T1 sequence (P48546 22-466): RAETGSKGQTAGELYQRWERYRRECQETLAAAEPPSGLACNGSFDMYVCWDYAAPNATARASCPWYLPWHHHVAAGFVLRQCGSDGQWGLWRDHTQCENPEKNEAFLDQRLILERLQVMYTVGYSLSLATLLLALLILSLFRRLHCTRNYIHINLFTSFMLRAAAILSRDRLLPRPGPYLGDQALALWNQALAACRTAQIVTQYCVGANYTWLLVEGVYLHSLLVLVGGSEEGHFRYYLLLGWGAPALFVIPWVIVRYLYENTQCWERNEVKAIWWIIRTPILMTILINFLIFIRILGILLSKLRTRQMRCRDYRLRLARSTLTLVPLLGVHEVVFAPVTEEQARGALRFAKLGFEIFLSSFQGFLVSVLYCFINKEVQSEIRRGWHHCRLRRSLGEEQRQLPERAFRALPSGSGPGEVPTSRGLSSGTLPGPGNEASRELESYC
Nature of the test: cAMP response (HTRF) of HEK-293 cells stably expressing human GIP receptor. Format: cell-based. The settings on record: Table 8; read-out: EC50 hGIP R. As for the experimental part:
Agonism of compounds for the receptors was determined by functional assays measuring cAMP response of HEK-293 cell lines stably expressing human GLP-1, GIP or glucagon receptor.
cAMP content of cells was determined using a kit from Cisbio Corp. (cat. no. 62AM4PEJ) based on HTRF (Homogenous Time Resolved Fluorescence). For preparation, cells were split into T175 culture flasks and grown overnight to near confluency in medium (DMEM/10% FBS). Medium was then removed and cells washed with PBS lacking calcium and magnesium, followed by proteinase treatment with accutase (Sigma-Aldrich cat. no. A6964). Detached cells were washed and resuspended in assay buffer (1×HBSS; 20 mM HEPES, 0.1% BSA, 2 mM IBMX) and cellular density determined. They were then diluted to 400000 cells/ml and 25 μl-aliquots dispensed into the wells of 96-well plates. For measurement, 25 μl of test compound in assay buffer was added to the wells, followed by incubation for 30 minutes at room temperature. After addition of HTRF reagents diluted in lysis buffer (kit components), the plates were incubated for 1 hr, followed by measurement of the fluorescence ratio at 665/616 nm. In vitro potency of agonists was quantified by determining the concentrations that caused 50% activation of maximal response (EC50).
Potencies of peptidic compounds at the GLP-1, glucagon and GIP receptors were determined by exposing cells expressing human glucagon receptor (hGlucagon R), human GIP receptor (hGIP-R) or human GLP-1 receptor (hGLP-1 R) to the listed compounds at increasing concentrations and measuring the formed cAMP as described in Methods.
In general terms: In TR-FRET formats the signal depends on donor and acceptor labels being close together.

`CCCCCCCCCCCCCCCC(=O)N[C@@H](CCC(=O)N[C@@H](CCC(=O)NCCCC[C@H](NC(=O)[C@H](CC(C)C)NC(=O)[C@H](CCCCN)NC(=O)[C@H](CO)NC(=O)[C@H](CC(C)C)NC(=O)[C@H](CC(=O)O)NC(=O)[C@H](CO)NC(=O)[C@@H](NC(=O)[C@H](Cc1ccccc1)NC(=O)[C@@H](NC(=O)CNC(=O)[C@H](Cc1c[nH]cn1)NC(=O)C(C)(C)NC(=O)[C@@H](N)Cc1c[nH]cn1)[C@@H](C)O)[C@@H](C)O)C(=O)N[C@@H](CCC(=O)O)C(=O)N[C@@H](CCC(=O)O)C(=O)N[C@@H](CCC(N)=O)C(=O)N[C@@H](CCCNC(=N)N)C(=O)N[C@@H](CCC(N)=O)C(=O)N[C@@H](CCCCN)C(=O)N[C@@H](CCC(=O)O)C(=O)N[C@@H](Cc1ccccc1)C(=O)N[C@H](C(=O)N[C@@H](CCC(=O)O)C(=O)N[C@@H](Cc1c[nH]c2ccccc12)C(=O)N[C@@H](CC(C)C)C(=O)N[C@@H](CCCCN)C(=O)N[C@@H](C)C(=O)NCC(=O)NCC(=O)N[C@@H](Cc1c[nH]cn1)C(=O)N1CCC[C@H]1C(=O)N[C@@H](CO)C(=O)NC(C)(C)C(=O)N[C@@H](CCCCN)C(=O)N1CCC[C@H]1C(=O)N1CCC[C@H]1C(=O)N1CCC[C@H]1C(=O)N[C@@H](CCCCN)C(N)=O)[C@@H](C)CC)C(=O)O)C(=O)O` [SEQ ID NO: 6, H-Aib-H-G-T-F-T-S-D-L-S-K-L-K[gGlu-gGlu-Palm]-E-E-Q-R-Q-K-E-F-I-E-W-L-K-A-G-G-H-P-S-Aib-K-P-P-P-K-NH2]: in the test with male ApoE KO mice (4 months (16 weeks) s.c. minipump), the “reduction of atherosclerotic plaques relative to vehicle control” value is given as 63%. In addition, the “LDL-cholesterol” value in the test on male ApoE KO mice (16 weeks) is recorded as “marked reduction”.

What is called EC50 is the concentration that produces a half-maximal response. In the case of `CCCCCCCCCCCCCCCC(=O)N[C@@H](CCC(=O)N[C@@H](CCC(=O)NCCCC[C@H](NC(=O)[C@H](CC(C)C)NC(=O)[C@H](CCCCN)NC(=O)[C@H](CO)NC(=O)[C@H](CC(C)C)NC(=O)[C@H](CC(=O)O)NC(=O)[C@H](CO)NC(=O)[C@@H](NC(=O)[C@H](Cc1ccccc1)NC(=O)[C@@H](NC(=O)CNC(=O)[C@H](Cc1c[nH]cn1)NC(=O)C(C)(C)NC(=O)[C@@H](N)Cc1c[nH]cn1)[C@@H](C)O)[C@@H](C)O)C(=O)N[C@@H](CCC(=O)O)C(=O)N[C@@H](CCC(=O)O)C(=O)N[C@@H](CCC(N)=O)C(=O)N[C@@H](CCCNC(=N)N)C(=O)N[C@@H](CCC(N)=O)C(=O)N[C@@H](CCCCN)C(=O)N[C@@H](CCC(=O)O)C(=O)N[C@@H](Cc1ccccc1)C(=O)N[C@H](C(=O)N[C@@H](CCC(=O)O)C(=O)N[C@@H](Cc1c[nH]c2ccccc12)C(=O)N[C@@H](CC(C)C)C(=O)N[C@@H](CCCCN)C(=O)N[C@@H](C)C(=O)N[C@H](C)C(=O)NCC(=O)N[C@@H](Cc1c[nH]cn1)C(=O)N1CCC[C@H]1C(=O)N[C@@H](CO)C(=O)NC(C)(C)C(=O)N[C@@H](CCCCN)C(=O)N1CCC[C@H]1C(=O)N1CCC[C@H]1C(=O)N1CCC[C@H]1C(=O)N[C@@H](CCCCN)C(N)=O)[C@@H](C)CC)C(=O)O)C(=O)O` [SEQ ID NO: 7, H-Aib-H-G-T-F-T-S-D-L-S-K-L-K[gGlu-gGlu-Palm]-E-E-Q-R-Q-K-E-F-I-E-W-L-K-A-dAla-G-H-P-S-Aib-K-P-P-P-K-NH2] (H-H[Aib]HGTFTSDLSKLK([γGlu-γGlu-Palmitoyl])EEQRQKEFIEWLKA[dA]GHPS[Aib]KPPPK-NH2), the EC50 on human GIP receptor worked out at 2.6 pM.

For the compound `CCCCCCCCCCCCCCCC(=O)N[C@@H](CCC(=O)N[C@@H](CCC(=O)NCCCC[C@H](NC(=O)[C@H](CC(C)C)NC(=O)[C@H](CCCCN)NC(=O)[C@H](CO)NC(=O)[C@H](CC(C)C)NC(=O)[C@H](CC(=O)O)NC(=O)[C@H](CO)NC(=O)[C@@H](NC(=O)[C@H](Cc1ccccc1)NC(=O)[C@@H](NC(=O)CNC(=O)[C@H](Cc1c[nH]cn1)NC(=O)C(C)(C)NC(=O)[C@@H](N)Cc1c[nH]cn1)[C@@H](C)O)[C@@H](C)O)C(=O)N[C@@H](CCC(=O)O)C(=O)N[C@@H](CCC(=O)O)C(=O)N[C@@H](CCC(N)=O)C(=O)N[C@@H](CCCNC(=N)N)C(=O)N[C@@H](CCC(N)=O)C(=O)N[C@@H](CCCCN)C(=O)N[C@@H](CCC(=O)O)C(=O)N[C@@H](Cc1ccccc1)C(=O)N[C@H](C(=O)N[C@@H](CCC(=O)O)C(=O)N[C@@H](Cc1c[nH]c2ccccc12)C(=O)N[C@@H](CC(C)C)C(=O)N[C@@H](CCCCN)C(=O)N[C@@H](C)C(=O)N[C@H](C)C(=O)NCC(=O)N1CCC[C@H]1C(=O)N1CCC[C@H]1C(=O)N[C@@H](CO)C(=O)NC(C)(C)C(=O)N[C@@H](CCCCN)C(=O)N1CCC[C@H]1C(=O)N1CCC[C@H]1C(=O)N1CCC[C@H]1C(=O)N[C@@H](CCCCN)C(N)=O)[C@@H](C)CC)C(=O)O)C(=O)O` [SEQ ID NO: 9, H-Aib-H-G-T-F-T-S-D-L-S-K-L-K[gGlu-gGlu-Palm]-E-E-Q-R-Q-K-E-F-I-E-W-L-K-A-dAla-G-P-P-S-Aib-K-P-P-P-K-NH2] (H-H[Aib]HGTFTSDLSKLK([γGlu-γGlu-Palmitoyl])EEQRQKEFIEWLKA[dA]GPPS[Aib]KPPPK-NH2), the EC50 at human GIP receptor was found to be 2.6 pM.

For the compound `CCCCCCCCCCCCCCCC(=O)N[C@@H](CCC(=O)N[C@@H](CCC(=O)NCCCC[C@H](NC(=O)[C@H](CC(C)C)NC(=O)[C@H](CCCCN)NC(=O)[C@H](CO)NC(=O)[C@H](CC(C)C)NC(=O)[C@H](CC(=O)O)NC(=O)[C@H](CO)NC(=O)[C@@H](NC(=O)[C@H](Cc1ccccc1)NC(=O)[C@@H](NC(=O)CNC(=O)[C@H](Cc1c[nH]cn1)NC(=O)C(C)(C)NC(=O)[C@@H](N)Cc1c[nH]cn1)[C@@H](C)O)[C@@H](C)O)C(=O)N[C@@H](CCC(=O)O)C(=O)N[C@@H](CCC(=O)O)C(=O)N[C@@H](CCC(N)=O)C(=O)N[C@@H](CCCNC(=N)N)C(=O)N[C@@H](CCC(N)=O)C(=O)NC(C)(C)C(=O)N[C@@H](CCC(=O)O)C(=O)N[C@@H](Cc1ccccc1)C(=O)N[C@H](C(=O)N[C@@H](CCC(=O)O)C(=O)N[C@@H](Cc1c[nH]c2ccccc12)C(=O)N[C@@H](CC(C)C)C(=O)N[C@@H](CCCCN)C(=O)N[C@@H](C)C(=O)NCC(=O)NCC(=O)N1CCC[C@H]1C(=O)N1CCC[C@H]1C(=O)N[C@@H](CO)C(=O)NC(C)(C)C(=O)N[C@@H](CCCCN)C(=O)N1CCC[C@H]1C(=O)N1CCC[C@H]1C(=O)N1CCC[C@H]1C(=O)N[C@@H](CCCCN)C(N)=O)[C@@H](C)CC)C(=O)O)C(=O)O` [SEQ ID NO: 10, H-Aib-H-G-T-F-T-S-D-L-S-K-L-K[gGlu-gGlu-Palm]-E-E-Q-R-Q-Aib-E-F-I-E-W-L-K-A-G-G-P-P-S-Aib-K-P-P-P-K-NH2], the half-maximal effective concentration (EC50) on human GIP receptor was found to be 1.1 pM.

Take `CCCCCCCCCCCCCCCC(=O)N[C@@H](CCC(=O)N[C@@H](CCC(=O)NCCCC[C@H](NC(=O)[C@H](CC(C)C)NC(=O)[C@H](CCCCN)NC(=O)[C@H](CO)NC(=O)[C@H](CC(C)C)NC(=O)[C@H](CC(=O)O)NC(=O)[C@H](CO)NC(=O)[C@@H](NC(=O)[C@H](Cc1ccccc1)NC(=O)[C@@H](NC(=O)CNC(=O)[C@H](Cc1c[nH]cn1)NC(=O)C(C)(C)NC(=O)[C@@H](N)Cc1c[nH]cn1)[C@@H](C)O)[C@@H](C)O)C(=O)N[C@@H](CCC(=O)O)C(=O)N[C@@H](CCC(=O)O)C(=O)N[C@@H](CCC(N)=O)C(=O)N[C@@H](CCCNC(=N)N)C(=O)N[C@@H](CCC(N)=O)C(=O)NC(C)(C)C(=O)N[C@@H](CCC(=O)O)C(=O)N[C@@H](Cc1ccccc1)C(=O)N[C@H](C(=O)N[C@@H](CCC(=O)O)C(=O)N[C@@H](Cc1c[nH]c2ccccc12)C(=O)N[C@@H](CC(C)C)C(=O)N[C@@H](CCCCN)C(=O)N[C@@H](C)C(=O)NCC(=O)NCC(=O)N[C@@H](Cc1c[nH]cn1)C(=O)N1CCC[C@H]1C(=O)N[C@@H](CO)C(=O)NC(C)(C)C(=O)N[C@@H](CCCCN)C(=O)N1CCC[C@H]1C(=O)N1CCC[C@H]1C(=O)N1CCC[C@H]1C(=O)N[C@@H](CCCCN)C(N)=O)[C@@H](C)CC)C(=O)O)C(=O)O` [SEQ ID NO: 12, H-Aib-H-G-T-F-T-S-D-L-S-K-L-K[gGlu-gGlu-Palm]-E-E-Q-R-Q-Aib-E-F-I-E-W-L-K-A-G-G-H-P-S-Aib-K-P-P-P-K-NH2]: the concentration giving a half-maximal response (EC50) on human GIP receptor is 1.9 pM.
